# Read-outs that look alike come from different tables or passages of the source.
# Assays:
# SHP2 (full length) = molecular target: T1, SHP2 (full length) (Homo sapiens, UniProt Q06124); experiment: Phosphatase assay (PTPase assay) with DiFMUP substrate; format: biochemical; conditions: SHP2 activated with SHP2 activating peptide; DiFMUP 80 μM, 2 hours; fluorescence; read-out: IC50 (PTPase aS say)
# T1 construct: SHP2 (full length, diluted to 100 pM final concentration in reaction buffer, BPS bioscience, US); purchased BPS bioscience, US
# T1 sequence (Q06124 1-593): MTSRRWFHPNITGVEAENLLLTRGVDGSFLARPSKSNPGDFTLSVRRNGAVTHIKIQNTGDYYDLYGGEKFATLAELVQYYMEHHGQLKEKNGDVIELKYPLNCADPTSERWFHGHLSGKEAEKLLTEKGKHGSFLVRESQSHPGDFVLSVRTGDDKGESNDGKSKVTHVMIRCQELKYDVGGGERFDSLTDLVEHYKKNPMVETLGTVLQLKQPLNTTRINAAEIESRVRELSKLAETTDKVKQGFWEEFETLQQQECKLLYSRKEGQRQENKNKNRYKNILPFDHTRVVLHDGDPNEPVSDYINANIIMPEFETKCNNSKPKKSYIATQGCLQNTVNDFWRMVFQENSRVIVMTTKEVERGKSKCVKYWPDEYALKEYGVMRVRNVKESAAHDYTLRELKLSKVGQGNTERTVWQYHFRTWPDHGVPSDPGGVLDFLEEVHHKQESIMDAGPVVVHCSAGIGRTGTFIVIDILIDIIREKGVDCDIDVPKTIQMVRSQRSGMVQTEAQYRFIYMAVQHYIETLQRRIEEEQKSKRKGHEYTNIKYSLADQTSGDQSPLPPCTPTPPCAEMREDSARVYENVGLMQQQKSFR
# [1] = test system: phospho-ERK in MIA PaCa2 or H358 cells; experiment: Phospho-ERK assay (AlphaLisa); format: cell-based; conditions: MIA PaCa2 or H358 cells, compound incubated 1.5 hours, read-out: IC50 (p-ERK)
SMILES,IC50 (SHP2 (full length)) [nM],IC50 [1] [nM],IC50 ([1]; 1.5 h) [nM]
"C[C@@H]1OCC2(CCN(c3cnc(Sc4ccc5ncn(Cc6ccccc6)c(=O)c5c4Cl)cn3)CC2)[C@@H]1N [Example 18, 6-((5-((3S,4S)-4-amino-3-methyl-2-oxa-8-azaspiro[4.5]decan-8-yl)pyrazin-2-yl)thio)-3-benzyl-5-chloroquinazolin-4(3H)-one]",< 3,< 45,
"COCCn1cnc2ccc(Sc3cnc(N4CCC5(CC4)Cc4scnc4[C@H]5N)c(CO)n3)c(Cl)c2c1=O [Example 170, (S)-6-((5-(4-amino-4,6-dihydrospiro[yclopenta[d]thiazole-5,4′-piperidin]-1′-yl)-6-(hydroxymethyl)pyrazin-2-yl)thio)-5-chloro-3-(2-methoxyethyl)quinazolin-4(3H)-one]",< 3,,< 45
"C[C@@H]1OCC2(CCN(c3cnc(Sc4ccc5ncn(CC6(F)CCOCC6)c(=O)c5c4Cl)cn3)CC2)[C@@H]1N [Example 79, 6-((5-((3S,4S)-4-amino-3-methyl-2-oxa-8-azaspiro[4.5]decan-8-yl)pyrazin-2-yl)thio)-5-chloro-3-((4-fluorotetrahydro-2H-pyran-4-yl)methyl)quinazolin-4(3H)-one]",< 3,,< 45
"COCCn1cnc2ccc(Sc3cnc(N4CCC5(CC4)Cc4ncsc4[C@H]5N)c(C(N)=O)n3)c(Cl)c2c1=O [Example 171, (S)-3-(6-amino-4,6-dihydrospiro[cyclopenta[d]thiazole-5,4′-piperidin]-1′-yl)-6-((5-chloro-3-(2-methoxyethyl)-4-oxo-3,4-dihydroquinazolin-6-yl)thio)pyrazine-2-carboxamide]",< 3,,< 45
COCCn1cnc2ccc(Sc3nc(CO)c(N4CCC5(CC4)CO[C@@H](C)[C@H]5N)nc3C)c(Cl)c2c1=O [Example 131],3 to 100,45 to 1500,
N[C@@H]1c2cccnc2CC12CCN(c1cnc(Sc3ccc4ncn(CCCF)c(=O)c4c3Cl)cn1)CC2 [Example 110],< 3,,< 45
"C[C@@H]1OCC2(CCN(c3cnc(Sc4ccc5ncn(Cc6ccncc6)c(=O)c5c4Cl)cn3)CC2)[C@@H]1N [Example 39, 6-((5-((3S,4S)-4-amino-3-methyl-2-oxa-8-azaspiro[4.5]decan-8-yl)pyrazin-2-yl)thio)-5-chloro-3-(pyridin-4-ylmethyl)quinazolin-4(3H)-one]",3 to 100,,45 to 1500
"C[C@@H]1OCC2(CCN(c3cnc(Sc4ccc5ncn(CC6CCOCC6)c(=O)c5c4Cl)cn3)CC2)[C@@H]1N [Example 65, 6-((5-((3S,4S)-4-amino-3-methyl-2-oxa-8-azaspiro[4.5]decan-8-yl)pyrazin-2-yl)thio)-5-chloro-3-((tetrahydro-2H-pyran-4-yl)methyl)quinazolin-4(3H)-one]",< 3,,< 45
"C[C@@H]1OCC2(CCN(c3cnc(Sc4ccc5ncn(CC6(O)CCOCC6)c(=O)c5c4Cl)cn3)CC2)[C@@H]1N [Example 83, 6-((5-((3S,4S)-4-amino-3-methyl-2-oxa-8-azaspiro[4.5]decan-8-yl)pyrazin-2-yl)thio)-5-chloro-3-((4-hydroxytetrahydro-2H-pyran-4-yl)methyl)quinazolin-4(3H)-one]",< 3,,< 45
"N[C@@H]1c2cccnc2CC12CCN(c1cnc(Sc3ccc4ncn(CC5CCOC5)c(=O)c4c3Cl)cn1)CC2 (stereo partly drawn) [Example 107, 6-((5-((S)-5-amino-5,7-dihydrospiro[yclopenta[b]pyridine-6,4′-piperidin]-1′-yl)pyrazin-2-yl]thio)-5-chloro-3-((tetrahydrofuran-3-yl)methyl)quinazolin-4(3H)-one]",< 3,,< 45
"C[C@@H]1OCC2(CCN(c3cnc(Sc4ccc5ncn(-c6ccccc6)c(=O)c5c4Cl)cn3)CC2)[C@@H]1N [Example 51, 6-((5-((3S,4S)-4-amino-3-methyl-2-oxa-8-azaspiro[4.5]decan-8-yl)pyrazin-2-yl)thio)-5-chloro-3-phenylquinazolin-4(3H)-one]",< 3,,45 to 1500
C[C@@H]1OCC2(CCN(c3cnc(Sc4ccc5ncn(CC6CNC(=O)O6)c(=O)c5c4Cl)cn3)CC2)[C@@H]1N (stereo partly shown) [Example 118],< 3,,< 45
"C[C@@H]1OCC2(CCN(c3cnc(Sc4ccc5ncn(Cc6cncnc6)c(=O)c5c4Cl)cn3)CC2)[C@@H]1N [Example 46, 6-((5-((3S,4S)-4-amino-3-methyl-2-oxa-8-azaspiro[4.5]decan-8-yl)pyrazin-2-yl)thio)-5-chloro-3-(pyrimidin-5-ylmethyl)quinazolin-4(3H)-one]",3 to 100,,< 45
"COCCn1cnc2ccc(Sc3cnc(N4CCC5(CC4)Cc4ncccc4[C@H]5N)c(CO)n3)c(Cl)c2c1=O [Example 168, (S)-6-((5-(5-amino-5,7-dihydrospiro[cyclopenta[b]pyridine-6,4′-piperidin]-1′-yl)-6-(hydroxymethyl)pyrazin-2-yl)thio)-5-chloro-3-(2-methoxyethyl)quinazolin-4(3H)-one]",< 3,,< 45
C[C@@H]1OCC2(CCN(c3cnc(Sc4ccc5ncn(CC6CCC(=O)CC6)c(=O)c5c4Cl)cn3)CC2)[C@@H]1N [Example 121],< 3,,< 45
"N[C@@H]1c2ccccc2CC12CCN(c1cnc(Sc3ccc4ncn(CC5CCOC5)c(=O)c4c3Cl)cn1)CC2 (stereo partly drawn) [Example 103, 6-((5-((S)-1-amino-1,3-dihydrospiro[indene-2,4′-piperidin]-1′-yl]pyrazin-2-yl]thio)-5-chloro-3-((tetrahydrofuran-3-yl)methyl)quinazolin-4(3H)-one]",< 3,,< 45
"Cc1nc2ccc(Sc3cnc(N4CCC(C)(N)CC4)cn3)c(Cl)c2s1 [Example 24, 1-(5-((7-chloro-2-methylbenzo[d]thiazol-6-yl)thio)pyrazin-2-yl)-4-methylpiperidin-4-amine]",3 to 100,,> 1500
C[C@@H]1OCC2(CCN(c3cnc(Sc4ccc5ncn(Cc6cccc(C(F)(F)F)c6)c(=O)c5c4Cl)cn3)CC2)[C@@H]1N [Example 34],3 to 100,,45 to 1500
"Cn1cc2c(Cl)c(Sc3cnc(N4CCC(C)(N)CC4)cn3)ccc2n1 [Example 25, 1-(5-((4-chloro-2-methyl-2H-indazol-5-yl)thio)pyrazin-2-yl)-4-methylpiperidin-4-amine]",3 to 100,,45 to 1500
"C[C@@H]1OCC2(CCN(c3cnc(Sc4ccc5ncn(C6CCCCC6)c(=O)c5c4Cl)cn3)CC2)[C@@H]1N [Example 91, 6-((5-((3S,4S)-4-amino-3-methyl-2-oxa-8-azaspiro[4.5]decan-8-yl)pyrazin-2-yl)thio)-5-chloro-3-cyclohexylquinazolin-4(3H)-one]",3 to 100,,45 to 1500
"N[C@@H]1c2cccnc2CC12CCN(c1cnc(Sc3ccc4ncn(Cc5ccncn5)c(=O)c4c3Cl)cn1)CC2 [Example 141, (S)-6-((5-(5-amino-5,7-dihydrospiro[yclopenta[b]pyridine-6,4′-piperidin]-1′-yl)pyrazin-2-yl)thio)-5-chloro-3-(pyrimidin-4-ylmethyl)quinazolin-4(3H)-one]",< 3,,< 45
"N[C@H]1c2scnc2CC12CCN(c1cnc(Sc3ccc4ncn(CC5CCOCC5)c(=O)c4c3Cl)cn1)CC2 [Example 148, 6-[5-[(6R)-6-aminospiro[4,6-dihydrocyclopenta[d]thiazole-5,4′piperidin]1′-yl]-pyrazin-2-yl]sulfanyl-5-chloro-3-(tetrahydropyran-4-ylmethyl)quinazolin-4-one]",3 to 100,,45 to 1500
"CC1(CN)CCN(c2cnc(Sc3ccc4nc[nH]c(=O)c4c3Cl)cn2)CC1 [Example 3, 6-((5-(4-(aminomethyl)-4-methylpiperidin-1-yl)pyrazin-2-yl)thio)-5-chloroquinazolin-4(3H)-one]",3 to 100,,45 to 1500
"COCCn1cnc2ccc(Sc3cnc(N4CCC5(CCC[C@H]5N)CC4)cn3)c(Cl)c2c1=O [Example 180, (R)-6-((5-(1-amino-8-azaspiro[4.5]decan-8-yl)pyrazin-2-yl)thio)-5-chloro-3-(2-methoxyethyl)quinazolin-4(3H)-one]",< 3,,45 to 1500
"C[C@@H]1OCC2(CCN(c3cnc(Sc4ccc5ncn(Cc6ccccn6)c(=O)c5c4Cl)cn3)CC2)[C@@H]1N [Example 88, 6-((5-((3S,4S)-4-amino-3-methyl-2-oxa-8-azaspiro[4.5]decan-8-yl)pyrazin-2-yl)thio)-5-chloro-3-(pyridin-2-ylmethyl)quinazolin-4(3H)-one]",< 3,,< 45
"Cn1c(N2CCN(CC(N)Cc3cccnc3)CC2)nc(N)c(Sc2cccc(Cl)c2Cl)c1=O (stereo not shown) [Example 188, 6-amino-2-(4-(2-amino-3-(pyridin-3-yl)propyl)piperazin-1-yl)-5-((2,3-dichlorophenyl)thio)-3-methylpyrimidin-4(3H)-one]",> 100,,> 1500
